Values after ≈ are worked out from the molar mass of the structure shown.

Among the test systems are Enterococcus faecalis; Enterococcus faecium VR; Staphylococcus aureus MR; Enterococcus faecalis VR; Enterococcus faecium; Escherichia coli UB1005.
Assay in all cases: ≥ marks a high value that may be exact or a test limit, other limits are often not marked, values filed in µg/mL are converted to µM
For assay [1], the system named is Pseudomonas aeruginosa KCTC 1637.
In assay [2] the test system is Escherichia coli KCTC 1682.
In assay [3] the test system is Bacillus subtilis KCTC 3068.
For assay [4], the system named is Staphylococcus aureus KCTC 1621.
Assay [5] concerns Staphylococcus epidermidis KCTC 1917.
Assay [6] concerns Salmonella typhimurium KCTC 1926.
For assay [7], the system named is Cronobacter sakazakii DPC 6440.
For assay [8], the system named is Staphylococcus aureus SA113.
Assay [9] has as its system Cronobacter muytjensii ATCC 51329.
Assay [10] relates to Staphylococcus aureus NCTC 8325-4.
Assay [11] deals with Escherichia coli NCIMB 11843.
For assay [12], the system named is Staphylococcus aureus RN4220.
Assay [13] concerns Salmonella enterica subsp. enterica serovar Typhimurium LT2.
Assay [14] concerns Cronobacter sakazakii DSM 4485.
The test system of assay [15] is Klebsiella pneumoniae NCIMB 13218.
Assay [16] has as its system Staphylococcus aureus RF122.
Assay [17] has as its system Pseudomonas fluorescens NCIMB 9046.
The test system of assay [18] is Cronobacter sakazakii ATCC BAA-894.
The test system of assay [19] is Staphylococcus aureus Newman.
Assay [20] concerns Escherichia coli ATCC 10536.
For assay [21], the system named is Bacillus subtilis ATCC 6633.
Assay [22] relates to Staphylococcus aureus ATCC 9144.
The subject of assay [23] is Escherichia coli DH5alpha.
Assay [24] concerns Corynebacterium glutamicum ATCC 13032.
The subject of assay [25] is Pseudomonas aeruginosa ATCC 27853.
Assay [26] relates to Salmonella enterica subsp. enterica serovar Typhi CMCC 50071.
Assay [27] deals with Staphylococcus aureus ATCC 29213.
Assay [28] has as its system Salmonella enterica subsp. enterica serovar Typhimurium ATCC 14028.
Assay [29] relates to Salmonella enterica subsp. enterica serovar Typhimurium C77-31.
The test system of assay [30] is Staphylococcus epidermidis ATCC 12228.
The test system of assay [31] is Staphylococcus aureus ATCC 25923.
The subject of assay [32] is Salmonella enterica subsp. enterica serovar Pullorum C79-13.

Regarding `CC(C)C[C@H](NC(=O)[C@H](CS)NC(=O)[C@H](CCCCN)NC(=O)[C@H](C)NC(=O)[C@H](C)N)C(=O)N[C@H](C(=O)N[C@@H](CCC(N)=O)C(=O)N[C@@H](CCCN=C(N)N)C(=O)N[C@@H](CCCN=C(N)N)C(=O)N[C@@H](CCCN=C(N)N)C(N)=O)C(C)C` [AAKCLVQRRR], the MIC in [1] turned out to be 7.5 µM (≈ 9 µg/mL); in [2] it was 30 µM (≈ 36 µg/mL); in assay [3], 15 µM (≈ 18 µg/mL); in assay [4], 15 µM (≈ 18 µg/mL); against Enterococcus faecalis it was 30 µM (≈ 36 µg/mL); in the assay with Enterococcus faecium VR it was 30 µM (≈ 36 µg/mL). The MIC in [5] was 7.5 µM (≈ 9 µg/mL); in the assay with Staphylococcus aureus MR, 15 µM (≈ 18 µg/mL); in assay [6], 7.5 µM (≈ 9 µg/mL); against Enterococcus faecalis VR it was 30 µM (≈ 36 µg/mL); with Enterococcus faecium, 30 µM (≈ 36 µg/mL).
As for `CC(C)C[C@H](NC(=O)[C@H](CC(N)=O)NC(=O)[C@H](CCC(=O)O)NC(=O)[C@H](CC(N)=O)NC(=O)[C@H](CC(C)C)NC(=O)[C@@H](N)C(C)C)C(=O)N[C@@H](C)C(=O)N[C@@H](CCCN=C(N)N)C(=O)O` [VLNENLAR], the MIC is no less than 625 µM in assay [7]; no less than 625 µM in assay [8]; no less than 2500 µM in assay [9]; no less than 625 µM in [10]; no less than 1250 µM in [11]; no less than 1250 µM in assay [12]. Also, the MIC in assay [13] was no less than 2500 µM; in assay [14], no less than 2500 µM; in assay [15], no less than 1250 µM; in assay [16], no less than 1250 µM; in assay [17], no less than 1250 µM; in assay [18], no less than 2500 µM. The molecule further registered an MIC in assay [19] of no less than 1250 µM.
In the case of `CC(C)C[C@H](NC(=O)[C@H](CC(C)C)NC(=O)[C@H](CC(N)=O)NC(=O)[C@H](CCC(=O)O)NC(=O)[C@H](CC(N)=O)NC(=O)[C@H](CC(C)C)NC(=O)[C@@H](N)C(C)C)C(=O)N[C@@H](CCCCN)C(=O)O` [VLNENLLK], the MIC in assay [7] is no less than 1250 µM; in [8], no less than 1250 µM; in [9], no less than 1250 µM; in [10], no less than 1250 µM; in [11], no less than 2500 µM; in assay [12] it was no less than 1250 µM. Further, the MIC is no less than 2500 µM in assay [13]; no less than 1250 µM in assay [14]; no less than 2500 µM in assay [15]; no less than 1250 µM in [16]; no less than 625 µM in assay [17]; no less than 2500 µM in [18]. Also, in assay [19], the MIC is no less than 1250 µM.
On to `CC[C@H](C)[C@H](NC(=O)CNC(=O)CN)C(=O)N[C@@H](CC(C)C)C(=O)N[C@H](C(=O)N[C@@H](C)C(=O)N[C@@H](CCCCN)C(=O)N[C@@H](CC(C)C)C(=O)N[C@H](C(=O)N[C@H](C(=O)N[C@H](C(=O)N[C@@H](CC(C)C)C(=O)NCC(=O)N1CCC[C@H]1C(=O)N[C@@H](C)C(=O)N[C@@H](CC(C)C)C(=O)N[C@H](C(=O)N[C@@H](CO)C(=O)N[C@@H](Cc1c[nH]c2ccccc12)C(=O)N[C@H](C(=O)N[C@@H](CCCCN)C(=O)N[C@@H](CCCN=C(N)N)C(=O)N[C@@H](CCCCN)C(=O)N[C@@H](CCCN=C(N)N)C(=O)N[C@@H](CCC(N)=O)C(=O)N[C@@H](CCC(N)=O)C(N)=O)[C@@H](C)CC)[C@@H](C)CC)[C@@H](C)O)[C@@H](C)O)C(C)C)C(C)C` [GGILVAKLVTTLGPALISWIKRKRQQ], for which the MIC was determined as 4.7 µM (≈ 13.4 µg/mL) in [20], 5.8 µM (≈ 16.5 µg/mL) in [21], 5 µM (≈ 14.2 µg/mL) in [22] and 4.8 µM (≈ 13.7 µg/mL) in assay [23].
For `CC[C@H](C)[C@H](NC(=O)[C@H](Cc1c[nH]c2ccccc12)NC(=O)[C@@H](N)CCCCN)C(=O)N[C@H]1CSSC[C@@H](C(=O)N[C@@H](CCCN=C(N)N)C(=O)N[C@@H](Cc2c[nH]c3ccccc23)C(=O)N[C@@H](CCCN=C(N)N)C(=O)O)NC(=O)[C@H](Cc2ccc(O)cc2)NC(=O)[C@H]([C@@H](C)O)NC(=O)[C@H]([C@@H](C)CC)NC(=O)[C@H](Cc2c[nH]c3ccccc23)NC(=O)[C@H](CCCN=C(N)N)NC(=O)CNC(=O)[C@H](CCCN=C(N)N)NC(=O)[C@H](Cc2ccc(O)cc2)NC(=O)[C@H](Cc2c[nH]c3ccccc23)NC(=O)[C@H](CC(C)C)NC(=O)[C@H](CCCN=C(N)N)NC(=O)[C@H](CCCN=C(N)N)NC1=O` [KWICRRLWYRGRWITYCRWR], the MIC in [24] came to 0.78 µM (≈ 2.23 µg/mL); in assay [23] it was 12.5 µM (≈ 35.7 µg/mL).
On to `CC(C)C[C@H](NC(=O)[C@H](C)NC(=O)[C@@H](N)C(C)C)C(=O)N[C@@H](CC(N)=O)C(=O)N[C@@H](CCC(=O)O)C(=O)N[C@@H](CC(N)=O)C(=O)N[C@@H](CC(C)C)C(=O)N[C@@H](CC(C)C)C(=O)N[C@@H](CCCN=C(N)N)C(=O)O` [VALNENLLR], for which the MIC in [7] is no less than 625 µM; in assay [8], no less than 1250 µM; in assay [9], no less than 625 µM; in [25], 32 µM (≈ 33.3 µg/mL); in [10] it was no less than 625 µM; in assay [11], no less than 2500 µM. Further, the MIC in assay [12] is no less than 1250 µM; in assay [13] it was no less than 2500 µM; in [14] it was no less than 2500 µM; in assay [15], no less than 2500 µM; in assay [16], no less than 1250 µM; in assay [17] it was no less than 2500 µM. Also, the MIC in [18] and in [19] was no less than 1250 µM throughout.
On to `NC(=O)CC[C@H](NC(=O)[C@H](Cc1c[nH]c2ccccc12)NC(=O)[C@H](CCCN=C(N)N)NC(=O)[C@H](CCCN=C(N)N)NC(=O)[C@@H]1CCCN1C(=O)[C@@H](N)Cc1ccccc1)C(=O)N[C@@H](Cc1c[nH]c2ccccc12)C(=O)N[C@@H](CCCN=C(N)N)C(=O)N[C@@H](CCCN=C(N)N)C(=O)N1CCC[C@H]1C(=O)N[C@@H](Cc1ccccc1)C(N)=O` [FPRRWQWRRPF], for which the MIC in assay [26] was no less than 128 µM; against Escherichia coli UB1005, 8 µM (≈ 13 µg/mL); in assay [27], 32 µM (≈ 52.2 µg/mL); in assay [28], 32 µM (≈ 52.2 µg/mL); in assay [29] it was no less than 64 µM; in [30] it was 64 µM (≈ 104 µg/mL). Further, the values for the MIC in [31] and in assay [32] were 32 µM (≈ 52.2 µg/mL) and 16 µM (≈ 26.1 µg/mL), respectively.

Values taken from DBAASP.
